Measurements taken from patent publication US20060069132A1, “Azolecarboxamide herbicides” (priority 2004, published 2006).

Tests used:
[1] = test system: velvetleaf; test: Test A pre-/postemergence herbicide test; format: in vivo, Abutilon theophrasti
Method in brief: (§1)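 Seeds sown in sandy loam received a preemergence directed soil spray of compound in non-phytotoxic solvent with surfactant; postemergence plants (2–10 cm, one- to two-leaf stage) were sprayed to runoff at the same time. After ~10 days in greenhouse, injury was rated visually versus untreated controls (0 = no effect, 100 = complete control).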

[2] = test system: velvetleaf; test: Test B pre-/postemergence herbicide test; format: in vivo, Abutilon theophrasti; conditions: for Velvetleaf plant response rating (0 to 100 scale) / Plant response rating, Velvetleaf: preemergence; for Velvetleaf plant response rating: postemergence, scale 0 (no effect) to 100 (complete control)
Method in brief: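 Greenhouse pot assay with simultaneous preemergence (treated seed) and postemergence (2–18 cm seedlings) applications of surfactant-containing, non-phytotoxic solvent formulations. Response scored visually 13–15 days later on a 0–100 scale, 100 meaning complete control.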

[3] = test system: morningglory; test: Test C pre-/postemergence herbicide test; format: in vivo, Ipomoea coccinea; parameters: key to Plant response rating, Morningglory: 0 = no effect, 100 = complete control; conditions: preemergence
Method in brief: (§2)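 Seeds were planted and sprayed preemergence with test chemicals in a non-phytotoxic solvent mixture containing surfactant; postemergence treatments went onto plants 2 to 18 cm tall (1- to 4-leaf stage). After 12 to 14 days in a greenhouse, injury was rated visually against untreated controls on a 0–100 scale.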

[4] = test system: soybean; test: Test C pre-/postemergence herbicide test; format: in vivo, Glycine max; conditions: preemergence
Method in brief: as §2

[5] = test system: woolly cupgrass; test: Test C pre-/postemergence herbicide test; format: in vivo, Eriochloa villosa; conditions: preemergence
Method in brief: as §2

[6] = test system: bermudagrass; test: Test C pre-/postemergence herbicide test; format: in vivo, Cynodon dactylon; conditions: for Plant response rating, Bermudagrass: preemergence; for Bermudagrass plant response rating: Preemergence, 500 g ai/ha
Method in brief: as §2

[7] = test system: rice; test: Test B pre-/postemergence herbicide test; format: in vivo, Oryza sativa; conditions: preemergence; for Rice plant response rating (0 to 100 scale): 125 g ai/ha; for Plant response rating, Rice: 500 g ai/ha
Method in brief: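 Species tested were Echinochloa crus-galli, Ipomoea coccinea, Xanthium strumarium and Oryza sativa, treated both before emergence and at the 1- to 4-leaf stage; rice and barnyardgrass were also tested under flooding at 2 leaves. Greenhouse incubation lasted 13–15 days before visual 0–100 scoring.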

[8] = test system: morningglory; test: Test A pre-/postemergence herbicide test; format: in vivo, Ipomoea spp.
Method in brief: as §1

[9] = test system: goosegrass; test: Test C pre-/postemergence herbicide test; format: in vivo, Eleusine indica; conditions: preemergence
Method in brief: as §2

[10] = Postemergence, 500 g ai/ha, 0 to 100 scale, 0 no effect, 100 complete control
[11] = Postemergence, 2000 g ai/ha, 0 to 100 scale, 0 no effect, 100 complete control
[12] = Preemergence, 2000 g ai/ha, visual rating, 0 to 100 scale (0 no effect, 100 complete control)
[13] = preemergence, 500 g ai/ha, visual injury, 0 to 100 scale (0 no effect, 100 complete control)
[14] = 125 g ai/ha, 0 = no effect, 100 = complete control
[15] = 125 g ai/ha, scale 0 (no effect) to 100 (complete control), visual, 12 to 14 days
[16] = 500 g ai/ha, scale 0 to 100 (0 no effect, 100 complete control), visual, 12 to 14 days
[17] = 62 g ai/ha, scale 0 to 100, 0 no effect, 100 complete control
[18] = scale 0 to 100, 0 no effect, 100 complete control
[19] = 0 = no effect, 100 = complete control

Row | Structure (SMILES) | Velvetleaf plant response rating [1, 10] | Plant response rating, Velvetleaf [1, 11] | Velvetleaf plant response rating [1, 12] | Velvetleaf plant response rating [1, 13] | Velvetleaf plant response rating (0 to 100 scale) [2, 14] | Velvetleaf plant response rating ([2]; 125 g ai/ha, visual rating) | Velvetleaf plant response rating ([2]; 500 g ai/ha, visual rating) | Plant response rating, Morningglory ([3]; 62 g ai/ha, scale 0 to 100) | Plant response rating, Morningglory [3, 15] | Plant response rating, Morningglory ([3]; 250 g ai/ha, scale 0-100) | Plant response rating, Morningglory [3, 16] | Plant response rating, Soybean ([4]; 62 g ai/ha, scale 0 to 100) | Plant response rating, Soybean [4, 15] | Plant response rating, Soybean ([4]; 250 g ai/ha, scale 0-100) | Plant response rating, Soybean [4, 16] | Plant response rating, Cupgrass, Woolly ([5]; 62 g ai/ha, scale 0 to 100) | Plant response rating, Cupgrass, Woolly [5, 15] | Plant response rating, Cupgrass, Woolly ([5]; 250 g ai/ha, scale 0-100) | Plant response rating, Cupgrass, Woolly [5, 16] | Plant response rating, Bermudagrass [6, 17] | further results
1 | CCNC(=O)c1cccc(NC(=O)c2sc(C(C)(C)C)nc2CC)c1 [Compound 210] | 40 | 65 | 95 | 70 | 10 | 30 | 70 | 0 | 0 | 5 | 10 | 0 | 0 | 0 | 0 | 0 | 0 | 5 | 10 | 80 | Plant response rating, Velvetleaf ([2]; 500 g ai/ha, visual rating 0-100, 0 no effect, 100 complete control): 70; Plant response rating, Bermudagrass [6, 15]: 80; Plant response rating, Bermudagrass ([6]; 250 g ai/ha, scale 0-100): 100; Bermudagrass plant response rating [6, 18]: 100; Rice plant response rating (0 to 100 scale) [7, 19]: 60; Plant response rating, Rice ([7]; visual rating 0-100, 0 no effect, 100 complete control): 80; Morningglory plant response rating [8, 10]: 20; Plant response rating, Morningglory [8, 11]: 25; Morningglory plant response rating [8, 12]: 100; Morningglory plant response rating [8, 13]: 55; Plant response rating, Goosegrass ([9]; 62 g ai/ha, scale 0 to 100): 50; Plant response rating, Goosegrass [9, 15]: 80; Plant response rating, Goosegrass ([9]; 250 g ai/ha, scale 0-100): 95; Plant response rating, Goosegrass [9, 16]: 95
2 | CCNC(=O)c1cccc(NC(=O)c2sc(C(C)(C)C)nc2CC)n1 [Compound 213] | 30 | 25 | 35 | 15 | 0 | 0 | 60 | 0 | 0 | 0 | 0 | 0 | 0 | 0 | 0 | 0 | 0 | 0 | 30 | 50 | Plant response rating, Velvetleaf ([2]; 500 g ai/ha, visual rating, 0 = no effect, 100 = complete control): 80; Plant response rating, Bermudagrass [6, 15]: 60; Plant response rating, Bermudagrass ([6]; 250 g ai/ha, scale 0-100): 80; Bermudagrass plant response rating [6, 18]: 90; Rice plant response rating (0 to 100 scale) [7, 19]: 0; Plant response rating, Rice ([7]; visual rating, 0 = no effect, 100 = complete control): 40; Morningglory plant response rating [8, 10]: 20; Plant response rating, Morningglory [8, 11]: 10; Morningglory plant response rating [8, 12]: 60; Morningglory plant response rating [8, 13]: 25; Plant response rating, Goosegrass ([9]; 62 g ai/ha, scale 0 to 100): 0; Plant response rating, Goosegrass [9, 15]: 60; Plant response rating, Goosegrass ([9]; 250 g ai/ha, scale 0-100): 80; Plant response rating, Goosegrass [9, 16]: 90
